In patent publication US20250230193A1, “CYCLIC COMPOUND HAVING SELECTIVE KRAS INHIBITORY EFFECT ON HRAS AND NRAS” (CHUGAI SEIYAKU KABUSHIKI KAISHA, priority 2022, published 2025):

Columns and labels:
[1] = target: GDP-bound NRAS wild-type protein (Homo sapiens, UniProt P01111); assay: Binding to NRAS by surface plasmon resonance (SPR), Single Cycle Kinetics; settings: KD ratio NRAS/KRAS, SPR, GDP-bound wild-type proteins
[2] = target: GDP-bound HRAS wild-type protein (Homo sapiens, UniProt P01112); assay: Binding to HRAS by surface plasmon resonance (SPR), Single Cycle Kinetics; settings: KD ratio HRAS/KRAS, SPR, GDP-bound wild-type proteins
Chain of GDP-bound HRAS wild-type protein (P01112 whole entry): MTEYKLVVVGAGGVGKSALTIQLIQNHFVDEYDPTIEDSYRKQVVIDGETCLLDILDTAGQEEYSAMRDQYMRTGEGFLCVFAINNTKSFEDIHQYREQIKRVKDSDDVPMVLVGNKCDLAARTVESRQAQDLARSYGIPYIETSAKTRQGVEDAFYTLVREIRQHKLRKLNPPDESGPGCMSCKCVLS

Chain of GDP-bound NRAS wild-type protein (P01111 whole entry): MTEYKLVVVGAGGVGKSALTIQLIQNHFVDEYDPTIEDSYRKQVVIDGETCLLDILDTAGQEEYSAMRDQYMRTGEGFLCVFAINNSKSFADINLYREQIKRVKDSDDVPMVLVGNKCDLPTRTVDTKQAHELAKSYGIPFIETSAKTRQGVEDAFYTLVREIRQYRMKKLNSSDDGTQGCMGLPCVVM

Structure (SMILES) | NRAS/KRAS (ratio of KD value with respect to GDP-bound NRAS wild-type protein to KD value with respect to KRAS) [1] | HRAS/KRAS (ratio of KD value with respect to GDP-bound HRAS wild-type protein to KD value with respect to KRAS) [2]
CCO[C@@H]1C[C@H]2C(=O)NC3(CC(C)(C)C3)C(=O)N(C)[C@@H](C3CCCC3)C(=O)N(C)[C@H](C(=O)N(C)C)CC(=O)N(C)[C@H]3CCCCCc4ccc(cc4)C[C@@H](C(=O)N(C)CC(=O)N[C@@H](CCc4ccc(Cl)c(Cl)c4)C(=O)N2C1)N1CC/C=C\C[C@@H](C1=O)N(C)C(=O)CN(C)C(=O)[C@H]([C@@H](C)CC)NC3=O [PP3076] | AA (a compound having 20 or more is denoted as AA) | A (a compound having 10 or more and less than 20 is denoted as A)
CCCO[C@@H]1C[C@H]2C(=O)NC3(CC(C)(C)C3)C(=O)N(C)[C@@H](C3CCCC3)C(=O)N(C)[C@H](C(=O)N(C)C)CC(=O)N(C)[C@H]3CCCCc4ccc(cc4)C[C@@H](C(=O)N(C)CC(=O)N[C@@H](CCc4ccc(C(F)(F)F)c(OC)c4)C(=O)N2C1)N1CC/C=C\C[C@@H](C1=O)N(C)C(=O)CN(C)C(=O)[C@H]([C@@H](C)CC)NC3=O [PP3077] | A (a compound having 10 or more and less than 20 is denoted as A) | B (a compound having 3 or more and less than 10 is denoted as B)
CC[C@H](C)[C@@H]1NC(=O)[C@@H]2CCCCc3ccc(cc3)C[C@@H](C(=O)N(C)CC(=O)N[C@@H](CCc3ccc(C(F)(F)F)c(OC)c3)C(=O)N3C[C@H](OC(C)C)C[C@H]3C(=O)NC3(CC(C)(C)C3)C(=O)N(C)[C@@H](C3CCCC3)C(=O)N(C)[C@H](C(=O)N(C)CC)CC(=O)N2C)N2CC/C=C\C[C@@H](C2=O)N(C)C(=O)CN(C)C1=O [PP3078] | A (a compound having 10 or more and less than 20 is denoted as A) | B (a compound having 3 or more and less than 10 is denoted as B)
CC[C@H](C)[C@@H]1NC(=O)[C@@H]2CCCCc3ccc(cc3)C[C@@H](C(=O)N(C)CC(=O)N[C@@H](CCc3ccc(C(F)(F)F)c(OC)c3)C(=O)N3C[C@H](OC4CCC4)C[C@H]3C(=O)NC3(CC(C)(C)C3)C(=O)N(C)[C@@H](C3CCCC3)C(=O)N(C)[C@H](C(=O)N(C)CC)CC(=O)N2C)N2CC/C=C\C[C@@H](C2=O)N(C)C(=O)CN(C)C1=O [PP3079] | A (a compound having 10 or more and less than 20 is denoted as A) | B (a compound having 3 or more and less than 10 is denoted as B)
CC[C@H](C)[C@@H]1NC(=O)[C@@H]2CCCCc3ccc(cc3)C[C@@H](C(=O)N(C)CC(=O)N[C@@H](CCc3ccc(C(F)(F)F)c(OC)c3)C(=O)N3C[C@H](OC4CCCC4)C[C@H]3C(=O)NC3(CC(C)(C)C3)C(=O)N(C)[C@@H](C3CCCC3)C(=O)N(C)[C@H](C(=O)N(C)C)CC(=O)N2C)N2CC/C=C\C[C@@H](C2=O)N(C)C(=O)CN(C)C1=O [PP3080] | A (a compound having 10 or more and less than 20 is denoted as A) | B (a compound having 3 or more and less than 10 is denoted as B)
CC[C@H](C)[C@@H]1NC(=O)[C@@H]2CCCCc3ccc(cc3)C[C@@H](C(=O)N(C)CC(=O)N[C@@H](CCc3ccc(C(F)(F)F)c(OC)c3)C(=O)N3CC4(CC4)C[C@H]3C(=O)NC3(CC(C)(C)C3)C(=O)N(C)[C@@H](C3CCCC3)C(=O)N(C)[C@H](C(=O)N(C)CC)CC(=O)N2C)N2CC/C=C\C[C@@H](C2=O)N(C)C(=O)CN(C)C1=O [PP3081] | A (a compound having 10 or more and less than 20 is denoted as A) | B (a compound having 3 or more and less than 10 is denoted as B)
CCCO[C@@H]1C[C@H]2C(=O)NC3(CC(C)(C)C3)C(=O)N(C)[C@@H](C3CCCC3)C(=O)N(C)[C@H](C(=O)N(C)C)CC(=O)N(C)[C@H]3CCCCc4ccc(cc4)C[C@@H](C(=O)N(C)CC(=O)N[C@@H](CCc4ccc(C(F)(F)F)c(OC)c4)C(=O)N2C1)N1CC/C=C\C[C@@H](C1=O)N(C)C(=O)CN(C1CC1)C(=O)[C@H]([C@@H](C)CC)NC3=O [PP3082] | B (a compound having 3 or more and less than 10 is denoted as B) | B (a compound having 3 or more and less than 10 is denoted as B)
CCCO[C@@H]1C[C@H]2C(=O)NC3(CC(C)(C)C3)C(=O)N(C)[C@@H](C3CCCC3)C(=O)N(C)[C@H](C(=O)N(C)CC)CC(=O)N(C)[C@H]3CCCc4ccc(cc4)C[C@@H](C(=O)N(C)CC(=O)N[C@@H](CCc4ccc(C(F)(F)F)c(OC)c4)C(=O)N2C1)N1CC/C=C\C[C@@H](C1=O)N(C)C(=O)CN(C)C(=O)[C@H]([C@@H](C)CC)NC3=O [PP3083] | A (a compound having 10 or more and less than 20 is denoted as A) | A (a compound having 10 or more and less than 20 is denoted as A)
CC[C@H](C)[C@@H]1NC(=O)[C@@H]2CCCc3ccc(cc3)C[C@@H](C(=O)N(C)CC(=O)N[C@@H](CCc3ccc(C(F)(F)F)c(OC)c3)C(=O)N3C[C@H](OC(C)C)C[C@H]3C(=O)NC3(CC(C)(C)C3)C(=O)N(C)[C@@H](C3CCCC3)C(=O)N(C)[C@H](C(=O)N(C)CC)CC(=O)N2C)N2CC/C=C\C[C@@H](C2=O)N(C)C(=O)CN(C)C1=O [PP3084] | A (a compound having 10 or more and less than 20 is denoted as A) | B (a compound having 3 or more and less than 10 is denoted as B)
CC[C@H](C)[C@@H]1NC(=O)[C@@H]2CCCc3ccc(cc3)C[C@@H](C(=O)N(C)CC(=O)N[C@@H](CCc3ccc(C(F)(F)F)c(OC)c3)C(=O)N3C[C@H](OC4CCC4)C[C@H]3C(=O)NC3(CC(C)(C)C3)C(=O)N(C)[C@@H](C3CCCC3)C(=O)N(C)[C@H](C(=O)N(C)CC)CC(=O)N2C)N2CC/C=C\C[C@@H](C2=O)N(C)C(=O)CN(C)C1=O [PP3085] | A (a compound having 10 or more and less than 20 is denoted as A) | B (a compound having 3 or more and less than 10 is denoted as B)
CC[C@H](C)[C@@H]1NC(=O)[C@@H]2CCCc3ccc(cc3)C[C@@H](C(=O)N(C)CC(=O)N[C@@H](CCc3ccc(C(F)(F)F)c(OC)c3)C(=O)N3C[C@H](OC4CCCC4)C[C@H]3C(=O)NC3(CC(C)(C)C3)C(=O)N(C)[C@@H](C3CCCC3)C(=O)N(C)[C@H](C(=O)N(C)CC)CC(=O)N2C)N2CC/C=C\C[C@@H](C2=O)N(C)C(=O)CN(C)C1=O [PP3086] | B (a compound having 3 or more and less than 10 is denoted as B) | B (a compound having 3 or more and less than 10 is denoted as B)
